According to article PMC4499255, “Monitoring Conformational Changes in the NDM-1 Metallo-β-lactamase by ^19F NMR Spectroscopy” (Angewandte Chemie (International Ed. in English), 2014):
Like-named read-outs stand apart in the source and are kept apart here.

What was measured:
[1] = target: NDM-1* (BFA-labeled M67C NDM-1) (Klebsiella pneumoniae, UniProt C7C422, M67C); type: biochemical; conditions: labeled NDM-1*; for Km: substrate affinity
Experimental: (§1) buffer was prepared freshly prior to the reaction.
Kinetic and inhibition analyses were performed as described1. K measurements were performed
(§2) nM NDM-1* for nitrocefin measurements. […]

[2] = target: T1, NDM-1 (Klebsiella pneumoniae, UniProt C7C422); conditions: unlabeled NDM-1; cited from earlier work
T1 sequence (C7C422 37-270 limits assumed): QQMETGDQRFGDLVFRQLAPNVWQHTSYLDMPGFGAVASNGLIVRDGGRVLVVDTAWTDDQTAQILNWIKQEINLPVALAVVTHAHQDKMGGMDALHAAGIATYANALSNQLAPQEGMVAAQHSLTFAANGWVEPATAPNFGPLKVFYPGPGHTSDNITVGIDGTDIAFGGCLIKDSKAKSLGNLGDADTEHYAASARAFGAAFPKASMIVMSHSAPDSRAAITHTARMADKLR

[3] = target: di-ZnII-NDM-1* (BFA-labeled M67C NDM-1) (Klebsiella pneumoniae, UniProt C7C422, M67C); assay: 19F NMR ligand titration / binding assay
di-ZnII-NDM-1* (BFA-labeled M67C NDM-1), sequence (C7C422 37-270 M67C): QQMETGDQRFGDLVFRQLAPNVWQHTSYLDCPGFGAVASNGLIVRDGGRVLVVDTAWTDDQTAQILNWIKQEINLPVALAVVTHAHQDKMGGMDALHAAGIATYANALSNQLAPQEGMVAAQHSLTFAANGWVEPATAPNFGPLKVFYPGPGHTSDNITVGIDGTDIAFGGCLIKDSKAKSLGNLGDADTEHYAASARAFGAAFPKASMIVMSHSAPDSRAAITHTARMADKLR
Experimental: To calculate the molar fraction of protein–ligand complex, Equation (1) was used: [drawing 1] (1) where [P0] is the total protein concentration and [L0] is the total ligand concentration titrated into solution. […]
as §1
Kinetic and inhibition analyses were performed as described1. K measurements were performed […]
as §2
with rf field of 3.125 kHz.
768 scans and a recovery delay of 1s. Data were processed with 3 Hz Lorentzian line broadening […]
Trifluoroacetic acid (TFA, 50 µM) […]
was used as an internal standard. All inhibitor incubations were compared to appropriate NDM-1* […]
A DMSO titration curve was used for reference
Metal binding experiments

[4] = target: T1, NDM-1
[5] = test system: C[C@@H](O)[C@H]1C(=O)N2C(C(=O)O)=C(S[C@@H]3CN[C@H](C(=O)N(C)C)C3)[C@H](C)[C@H]12; assay: purified protein, by the assay type; conditions: other: unlabeled NDM-1; substrate affinity; 25.0 °C
Experimental: We then investigated the kinetic properties of NDM-1* compared to unlabeled NDM-1.
using 0.5 nM NDM-1 and 1 nM NDM-1* for meropenem measurements and 0.25 nM NDM-1 and 2

NDM-1* (BFA-labeled M67C NDM-1), sequence (C7C422 37-270 M67C): as above

C[C@@H](O)[C@H]1C(=O)N2C(C(=O)O)=C(S[C@@H]3CN[C@H](C(=O)N(C)C)C3)[C@H](C)[C@H]12 [Meropenem]
kcat [1]: 67.8 ± 4.3 s⁻¹ | Km [1]: 54.8 ± 9.4 µM

O=C(Cc1cccs1)N[C@@H]1C(=O)N2C(C(=O)O)=C(/C=C/c3ccc([N+](=O)[O-])cc3[N+](=O)[O-])CS[C@H]12 [Nitrocefin]
kcat [1]: 22.9 ± 0.6 s⁻¹ | Km [1]: 6.2 ± 0.7 µM | kcat [2]: 25.3±1.6^[a] s^−1

C[C@H]1[C@H](NC(=O)/C(=N\OC(C)(C)C(=O)O)c2csc(N)n2)C(=O)N1S(=O)(=O)O [aztreonam]
19F chemical shift change upon addition of ligand (binding) ([3]; ligand 2.5 mM): no ^19F chemical shift change was observed | reported inhibition of NDM-1 ([4]; ref 9b; cited from earlier work): not to inhibit NDM-1

O=C(N[C@@H](Cc1c[nH]c2ccccc12)C(=O)O)c1nc(Cl)c2ccccc2c1O [compound 3, (S)-2-(1-chloro-4-hydroxyisoquinoline-3-carboxamido)-3-(1H-indol-3-yl)propanoic acid]
Kd [3]: 131 µM | IC50 ([4]; read-out: reported IC50; NDM-1; cited from earlier work): 61 µM

O=C(N[C@H](Cc1c[nH]c2ccccc12)C(=O)O)c1nc(Cl)c2ccccc2c1O [compound 4, (R)-2-(1-chloro-4-hydroxyisoquinoline-3-carboxamido)-3-(1H-indol-3-yl)propanoic acid]
IC50 ([4]; NDM-1; read-out: reported IC50; cited from earlier work): 47 µM

NDM-1 (Klebsiella pneumoniae)
Km [5]: 76.6 ± 4.4 µM | kcat [5]: 235 ± 5.6 s⁻¹
